Assay results published in publication PMC10258805, “Nonpeptidic Oxazole-Based Prolyl Oligopeptidase Ligands with Disease-Modifying Effects on α-Synuclein Mouse Models of Parkinson’s Disease” (Journal of Medicinal Chemistry, 2023).
Entries after “also recorded” stand apart in the source; their conditions may differ.

Tests used:
[1] = tested on: oligomeric αSyn in AAV-αSyn-injected mice; experiment: Oligomer-specific αSyn immunoreactivity (OD) in AAV-αSyn PD mouse model; settings: 10 mg/kg/day minipump, 4 weeks
[2] = molecular target: T1, human FAP (Homo sapiens, UniProt Q12884); experiment: Close-relative enzyme specificity assay, FAP; assay type: biochemical; settings: 1 or 10 μM
T1 construct: the human secretion signal was replaced with the HoneyBee melittin secretion signal; HoneyBee melittin secretion signal (N); His tag from the C-terminal BaculoDirect vector (inferred from Ni-chelating purification; the vector also adds V5, own knowledge) (C); made in house; host or cells: Sf9 insect cells
T1 sequence (Q12884 26-760 limits assumed): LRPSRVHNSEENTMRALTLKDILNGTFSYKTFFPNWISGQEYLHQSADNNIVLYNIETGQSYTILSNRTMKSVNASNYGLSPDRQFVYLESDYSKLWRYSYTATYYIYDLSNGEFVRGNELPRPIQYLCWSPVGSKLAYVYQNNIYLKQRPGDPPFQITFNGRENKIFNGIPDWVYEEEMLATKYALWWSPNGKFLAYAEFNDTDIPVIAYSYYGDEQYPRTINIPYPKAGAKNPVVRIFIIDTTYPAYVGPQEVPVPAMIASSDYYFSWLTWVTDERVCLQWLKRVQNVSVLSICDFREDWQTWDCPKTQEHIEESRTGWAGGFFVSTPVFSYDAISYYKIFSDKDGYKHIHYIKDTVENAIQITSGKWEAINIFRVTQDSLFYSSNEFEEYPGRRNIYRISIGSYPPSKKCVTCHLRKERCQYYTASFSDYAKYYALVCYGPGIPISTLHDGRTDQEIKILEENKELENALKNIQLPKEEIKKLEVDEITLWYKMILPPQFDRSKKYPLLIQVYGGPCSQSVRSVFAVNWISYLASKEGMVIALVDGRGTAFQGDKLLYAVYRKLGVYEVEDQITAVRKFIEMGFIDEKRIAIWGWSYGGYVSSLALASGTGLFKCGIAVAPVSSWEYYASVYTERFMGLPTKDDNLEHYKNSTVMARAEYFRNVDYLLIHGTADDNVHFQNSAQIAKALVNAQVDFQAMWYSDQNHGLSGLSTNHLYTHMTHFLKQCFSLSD
Text: FAP: A gateway-entry clone for human FAP was purchased from Dharmacon (Accession number DQ891423), and the human secretion signal was replaced with the HoneyBee melittin secretion signal. For transfection and expression of FAP in Sf9 insect cells, the C-terminal BaculoDirect kit from LifeTechnologies was used. The enzyme was purified from the supernatant of the insect cells using immobilized Ni-chelating chromatography (GE Healthcare, Diegem, Belgium), followed by anion-exchange chromatography using a 1 mL HiTrap Q and size exclusion chromatography using the Superdex 200 column (GE Healthcare, Diegem, Belgium).
Measurements were done on the Infinite 200 as above.

[3] = molecular target: T2, PREP in HEK-293 cells (Homo sapiens, UniProt P48147); experiment: Cellular thermal shift assay (CETSA); assay type: cell-based; settings: 10 μM, 1 h
T2 construct: endogenous in cells; host or cells: HEK-293 (ATCC)
T2 sequence (P48147 1-710): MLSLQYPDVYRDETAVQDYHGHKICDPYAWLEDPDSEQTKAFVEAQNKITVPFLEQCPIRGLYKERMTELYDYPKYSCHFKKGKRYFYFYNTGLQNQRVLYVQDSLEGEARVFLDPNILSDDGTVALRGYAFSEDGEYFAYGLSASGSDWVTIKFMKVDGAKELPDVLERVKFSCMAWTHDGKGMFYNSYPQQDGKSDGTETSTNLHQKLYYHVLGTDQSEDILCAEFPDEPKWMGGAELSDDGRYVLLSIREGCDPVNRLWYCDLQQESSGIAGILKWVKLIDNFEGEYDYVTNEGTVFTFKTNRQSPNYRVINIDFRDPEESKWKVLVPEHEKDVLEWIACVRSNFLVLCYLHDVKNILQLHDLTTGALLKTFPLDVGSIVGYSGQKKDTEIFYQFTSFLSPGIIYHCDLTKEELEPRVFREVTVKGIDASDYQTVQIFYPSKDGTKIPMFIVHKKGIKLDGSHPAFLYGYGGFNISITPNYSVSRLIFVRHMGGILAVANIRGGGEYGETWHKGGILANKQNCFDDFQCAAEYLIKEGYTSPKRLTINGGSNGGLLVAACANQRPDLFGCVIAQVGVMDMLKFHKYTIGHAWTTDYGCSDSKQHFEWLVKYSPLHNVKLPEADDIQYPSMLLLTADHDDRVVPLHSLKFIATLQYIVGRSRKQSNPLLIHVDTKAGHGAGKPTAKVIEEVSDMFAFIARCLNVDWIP
Experimental: CETSA was performed as previously described.[41] HEK-293 cells were seeded to T25 flasks with a density of 1 × 10^6 cells. […] After the exposure, the cells were collected in PBS and aliquoted into 7 PCR tubes (100,000 cells/tube). The cells were prewarmed at 37 °C for 3 min, then heated to 37, 47, 50, 53, 56, 63, or 67 °C for 3 min and subsequently cooled at 25 °C for 3 min using a PCR Mastercycler (T100 Thermal Cycler, Bio-Rad). After heating, the cells were disrupted with two freeze–thaw cycles by submerging the tubes into liquid nitrogen and subsequently thawed by incubation at 25 °C for 3 min. The aggregated proteins were removed by centrifugation (at 20,000g for 20 min at 4 °C), and the soluble fractions were diluted with Laemmli buffer (Bio-Rad, Hercules, CA) and analyzed with Western blot as described above. The nondenaturated protein fractions (%) were calculated by comparing the intensities of temperature-treated cell samples to the corresponding cell samples from 37 °C.

[4] = tested on: LC3BII in HEK-293 cells; experiment: Autophagy marker LC3BII assay (Western blot); assay type: cell-based, human; settings: HEK-293, 10 μM
[5] = tested on: LC3BII in mouse brain; experiment: LC3BII in mouse brain (Western blot); assay type: in vivo; settings: 10 mg/kg i.p., 45 min after injection
[6] = tested on: αSyn dimerization in HEK-293 PREP-KO cells; experiment: αSyn-dimerization assay in PREP-KO cells; assay type: cell-based, human
[7] = tested on: pPP2Ac and PP2Ac in HEK-293 cells; experiment: PP2A marker assay (Western blot); assay type: cell-based, human; settings: HEK-293, 10 μM

## Cc1nc(CCCc2ccccc2)oc1N1CCC[C@H]1C#N [HUP-55, (S)-1-(4-Methyl-2-(3-phenylpropyl)oxazol-5-yl)pyrrolidine-2-carbonitrile]
[1]; vs vehicle-treated group
  OD of oligomeric αSyn in the SNpc (in words): did not significantly reduce
[1]; vs vehicle-treated mice
  OD of oligomer-specific αSyn in the STR (in words): decreased the OD of oligomer-specific αSyn
[2]
  inhibition of FAP: no inhibition; also recorded: does not inhibit
[3]
  fitted mean aggregation temperature: 53.19 °C
[3]; vs DMSO
  increase in the fitted mean aggregation temperature: 3.01 °C
[4]; 4 h
  LC3BII levels (in words): significant increase in LC3BII levels
[4]; 24 h
  LC3BII levels (in words): significantly elevated LC3BII levels
[5]
  levels of LC3BII in mouse brain (in words): significantly elevated
[6]
  effect on αSyn dimerization: no effect on αSyn dimerization
[7]; 4 h
  pPP2Ac levels (in words): significant decrease in pPP2Ac levels
  total PP2Ac levels (in words): elevated total PP2Ac levels
[7]; 24 h
  PP2Ac levels (in words): significantly elevated
